Activity calls are given as the source filed them. How the calls were made is not given here.
Tested on: GENE-TOX genotoxicity assays, various organisms and cells
Test: GENE-TOX mutagenicity studies
Settings: for call: Assay Type: In vivo carcinogenicity studies
[1] = Species/Cell Type: Salmonella typhimurium (one or more of the five standard strains: TA98, TA100, TA1535, TA1537, and TA1538), Assay Type: Histidine reverse gene mutation, Ames assay, Assay Code: SAL+, Evaluation Type: Evaluation A (Pre-1980)
[2] = Species/Cell Type: Mouse, Sex: Male, Assay Type: Sperm morphology, Assay Code: SPI-, Evaluation Type: Evaluation A (Pre-1980)
[3] = Species/Cell Type: Nonhuman, Assay Type: Sister-chromatid exchange (SCE) in vitro, Assay Code: SC2T, Evaluation Type: Evaluation B (Post-1980)
[4] = Species/Cell Type: Mouse, Sex: Male, Assay Type: Sperm morphology, Assay Code: SPI+, Evaluation Type: Evaluation A (Pre-1980)
[5] = Species/Cell Type: Nonhuman, Assay Code: CCG+, Evaluation Type: Evaluation A (Pre-1980)
[6] = Species/Cell Type: Mammalian polychromatic erythrocytes, Assay Type: Micronucleus test, chromosome aberrations, Assay Code: MNTT, Evaluation Type: Evaluation A (Pre-1980)
[7] = Species/Cell Type: Nonhuman, Assay Type: Sister-chromatid exchange (SCE) in vitro, Assay Code: SC2+, Evaluation Type: Evaluation B (Post-1980)
[8] = Species/Cell Type: Fischer rat embryo (RLV/1706) cells, Assay Type: Cell transformation, viral enhanced, Assay Code: CTR+, Evaluation Type: Evaluation A (Pre-1980)
[9] = Species/Cell Type: Saccharomyces cerevisiae, Assay Type: Mitotic recombination or gene conversion, Assay Code: YEC+, Evaluation Type: Evaluation A (Pre-1980)
[10] = Species/Cell Type: Saccharomyces cerevisiae, Assay Type: Mitotic recombination or gene conversion, Assay Code: YEH+, Evaluation Type: Evaluation A (Pre-1980)
[11] = Species/Cell Type: Salmonella typhimurium (one or more of the five standard strains: TA98, TA100, TA1535, TA1537, and TA1538), Assay Type: Histidine reverse gene mutation, Ames assay, Assay Code: SAL+*, Activation: With metabolic activation, Evaluation Type: Evaluation A (Pre-1980)
[12] = Species/Cell Type: Salmonella typhimurium (one or more of the five standard strains: TA98, TA100, TA1535, TA1537, and TA1538), Assay Type: Histidine reverse gene mutation, Ames assay, Assay Code: SALT, Evaluation Type: Evaluation A (Pre-1980)
[13] = Species/Cell Type: Salmonella typhimurium, Assay Type: Forward and reverse gene mutation, host-mediated assay, Assay Code: HMA+, Evaluation Type: Evaluation A (Pre-1980)
[14] = Species/Cell Type: Syrian hamster embryo (SHE) cells, Assay Type: Cell transformation, clonal assay, Assay Code: CTC+, Evaluation Type: Evaluation A (Pre-1980)

SMILES: CCCCCCCCCCCCCC(=O)N(OC(C)=O)c1ccc2c(c1)Cc1ccccc1-2
- mutagenic call (Species/Cell Type: Human diploid fibroblasts, Assay Type: Unscheduled DNA synthesis (UDS) in vitro, DNA effects, Assay Code: UDH+, Evaluation Type: Evaluation A (Pre-1980)): active; positive
- mutagenic call [1]: active; positive

SMILES: CC1=C(/C=C/C(C)=C/C=C/C(C)=C/CO)C(C)(C)CCC1
- mutagenic call [2]: inactive; negative
- mutagenic call [3]: no conclusion

SMILES: NC(Cc1ccc(Oc2ccc(N(CCCl)CCCl)cc2)cc1)C(=O)O (stereo not drawn)
- mutagenic call (Species/Cell Type: Drosophila melanogaster, Assay Type: Sex-linked recessive lethal gene mutation, Assay Code: SRL+, Evaluation Type: Evaluation A (Pre-1980)): active; positive

SMILES: O=CNNc1nc(-c2ccc([N+](=O)[O-])o2)cs1
- mutagenic call (Species/Cell Type: Bacillus subtilis (H17 vs M45), Assay Type: Rec-assay, spot test, DNA effects (bacterial DNA repair), Assay Code: REW+, Evaluation Type: Evaluation A (Pre-1980)): active; positive
- mutagenic call (Species/Cell Type: Escherichia coli WP2, Assay Type: Tryptophan reverse gene mutation, Assay Code: WP2+, Evaluation Type: Evaluation A (Pre-1980)): active; positive
- mutagenic call (Species/Cell Type: Escherichia coli WP2 UVRA, Assay Type: Tryptophan reverse gene mutation, Assay Code: WPU+, Evaluation Type: Evaluation A (Pre-1980)): active; positive
- mutagenic call [4]: active; positive
- call [5]: active; positive
- mutagenic call [1]: active; positive

SMILES: Cc1c2c(c(C)c3c1ccc1ccccc13)[C@@H]1OC1[C@@H](O)[C@@H]2O (stereo partly drawn)
- mutagenic call (Species/Cell Type: Chinese hamster lung (V79) cells, Assay Type: Forward gene mutation at the HPRT or ouabain locus, Assay Code: V79+, Evaluation Type: Evaluation A (Pre-1980)): active; positive

SMILES: CC(C)OC(=O)Nc1cccc(Cl)c1
- mutagenic call (Species/Cell Type: Hordeum vulgare (barley), Assay Type: Chromosome aberrations, Assay Code: HOC+, Evaluation Type: Evaluation A (Pre-1980)): active; positive
- mutagenic call [6]: no conclusion
- mutagenic call [2]: inactive; negative
- mutagenic call [7]: active; positive

SMILES: ClCCl
- mutagenic call (Species/Cell Type: Drosophila melanogaster, Assay Type: Sex-linked recessive lethal gene mutation, Assay Code: SRL-, Evaluation Type: Evaluation A (Pre-1980)): inactive; negative
- mutagenic call [8]: active; positive
- mutagenic call (Species/Cell Type: Mammalian polychromatic erythrocytes, Assay Type: Micronucleus test, chromosome aberrations, Assay Code: MNT-, Evaluation Type: Evaluation B (Post-1980)): inactive; negative
- mutagenic call (Species/Cell Type: Nonhuman, Assay Type: Sister-chromatid exchange (SCE) in vitro, Assay Code: SC2+D, Dose Response: With dose response, Evaluation Type: Evaluation B (Post-1980)): active; positive
- mutagenic call [9]: active; positive
- mutagenic call [10]: active; positive
- mutagenic call (Species/Cell Type: Saccharomyces cerevisiae, Assay Type: Reverse gene mutation, Assay Code: YER+, Evaluation Type: Evaluation A (Pre-1980)): active; positive
- mutagenic call [1]: active; positive

SMILES: CCc1cccc(C)c1N(C(=O)CCl)C(C)COC (stereo not drawn)
- mutagenic call (Species/Cell Type: Zea mays (corn), Assay Type: Gene mutation, Assay Code: ZEM-, Evaluation Type: Evaluation A (Pre-1980)): inactive; negative

SMILES: CNC[C@H](O)c1ccc(O)c(O)c1
- mutagenic call [6]: no conclusion
- mutagenic call [2]: inactive; negative

SMILES: CC1=CCc2c1cc(C)c1c2ccc2ccccc21
- mutagenic call [11]: active; positive

SMILES: Cc1cc(O)c2c(c1O)C(=O)c1cc(O)cc(O)c1C2=O
- mutagenic call [1]: active; positive

SMILES: C=C1[C@@H](C)[C@H]2[C@H](Cc3ccccc3)NC(=O)[C@]23OC(=O)/C=C/[C@H](O)CCC[C@@H](C)C/C=C/[C@H]3[C@@H]1O
- mutagenic call (Species/Cell Type: Bacillus subtilis (H17 vs M45), Assay Type: Rec-assay, spot test, DNA effects (bacterial DNA repair), Assay Code: REW-, Evaluation Type: Evaluation A (Pre-1980)): inactive; negative

SMILES: COc1nc(OC)nc(N2CC2)n1
- mutagenic call (Species/Cell Type: Allium cepa, Assay Type: Chromosome aberrations, Assay Code: ALC+, Evaluation Type: Evaluation A (Pre-1980)): active; positive

SMILES: Cc1ccc2cccc(O)c2n1
- mutagenic call [12]: no conclusion

SMILES: O=NN1CCNCC1
- mutagenic call [13]: active; positive

SMILES: OC1c2ccccc2-c2cc3ccccc3cc2C1O (stereo not drawn)
- mutagenic call (Species/Cell Type: Chinese hamster lung (V79) cells, Assay Type: Forward gene mutation at the HPRT or ouabain locus, Assay Code: V79-*, Activation: With metabolic activation, Evaluation Type: Evaluation A (Pre-1980)): inactive; negative
- mutagenic call (Species/Cell Type: Chinese hamster lung (V79) cells, Assay Type: Forward gene mutation at the HPRT or ouabain locus, Assay Code: V79-, Evaluation Type: Evaluation A (Pre-1980)): inactive; negative
- mutagenic call (Species/Cell Type: Drosophila melanogaster, Assay Type: Sex-linked recessive lethal gene mutation, Assay Code: SRLT, Evaluation Type: Evaluation A (Pre-1980)): no conclusion
- mutagenic call (Species/Cell Type: Human diploid fibroblasts, Assay Type: Unscheduled DNA synthesis (UDS) in vitro, DNA effects, Assay Code: UDH-, Evaluation Type: Evaluation A (Pre-1980)): inactive; negative
- mutagenic call (Species/Cell Type: Mouse prostate cells, Assay Type: Cell transformation, Assay Code: CTM-, Evaluation Type: Evaluation A (Pre-1980)): inactive; negative
- mutagenic call [14]: active; positive

SMILES: CCC1(O)CC(OC2CC(N)C(OC3CC(O)C(OC4CCC(=O)C(C)O4)C(C)O3)C(C)O2)c2c(cc3c(c2O)C(=O)c2c(O)cccc2C3=O)C1C(=O)OC (stereo not drawn)
- mutagenic call [11]: active; positive

SMILES: CC(C)NCC(Cl)c1ccc2ccccc2c1 (stereo not drawn)
- mutagenic call [4]: active; positive

SMILES: Cc1ccc(N)cc1Cl
- call (Species/Cell Type: Nonhuman, Assay Code: CCG-, Evaluation Type: Evaluation A (Pre-1980)): inactive; negative

SMILES: O=S1(=O)CCCO1
- mutagenic call (Species/Cell Type: Escherichia coli polA (W3119 vs P3478), Assay Type: Rec-assay, DNA effects (bacterial DNA repair), Assay Code: RE1+, Evaluation Type: Evaluation A (Pre-1980)): active; positive
- mutagenic call [8]: active; positive
- mutagenic call (Species/Cell Type: Hordeum vulgare (barley), Assay Type: Chromosome aberrations, Assay Code: HOC+D, Dose Response: With dose response, Evaluation Type: Evaluation A (Pre-1980)): active; positive
- mutagenic call (Species/Cell Type: Human diploid fibroblasts, Assay Type: Unscheduled DNA synthesis (UDS) in vitro, DNA effects, Assay Code: UDH+D, Dose Response: With dose response, Evaluation Type: Evaluation A (Pre-1980)): active; positive
- call [5]: active; positive
- mutagenic call (Species/Cell Type: Nonhuman, Assay Type: Sister-chromatid exchange (SCE) in vitro, Assay Code: SC2+D, Dose Response: With dose response, Evaluation Type: Evaluation A (Pre-1980)): active; positive
- mutagenic call [9]: active; positive
- mutagenic call [10]: active; positive
- mutagenic call [1]: active; positive
- mutagenic call [13]: active; positive
- mutagenic call (Species/Cell Type: Schizosaccharomyces pombe, Assay Type: Reverse gene mutation, Assay Code: YEZ+, Evaluation Type: Evaluation A (Pre-1980)): active; positive
- mutagenic call (Species/Cell Type: Syrian hamster embryo (SA7/SHE) cells, Assay Type: Cell transformation, viral enhanced, Assay Code: CT7+, Evaluation Type: Evaluation A (Pre-1980)): active; positive
- mutagenic call (Species/Cell Type: Syrian hamster embryo (SHE) cells, Assay Type: Cell transformation, clonal assay, Assay Code: CTCT, Evaluation Type: Evaluation A (Pre-1980)): no conclusion
- mutagenic call (Species/Cell Type: Vicia faba, Assay Type: Chromosome aberrations, Assay Code: VIC+, Evaluation Type: Evaluation A (Pre-1980)): active; positive

SMILES: Cc1ccc2cc3ccc4ccccc4c3cc2c1
- mutagenic call [7]: active; positive
- mutagenic call [11]: active; positive
- mutagenic call [14]: active; positive

SMILES: CN(CCC(=O)OC[C@H](N)C(=O)O)N=O
- mutagenic call (Species/Cell Type: Escherichia coli polA (W3110 vs P3478), Assay Type: Rec-assay, DNA effects (bacterial DNA repair), Assay Code: RE2+, Evaluation Type: Evaluation A (Pre-1980)): active; positive
- mutagenic call (Species/Cell Type: Escherichia coli polA (W3119 vs P3478), Assay Type: Rec-assay, DNA effects (bacterial DNA repair), Assay Code: RE1T, Evaluation Type: Evaluation A (Pre-1980)): no conclusion

SMILES: c1cncc([C@@H]2CCCCN2)c1
- mutagenic call [3]: no conclusion

SMILES: CCCCNCCCC
- mutagenic call (Species/Cell Type: Nonhuman, Assay Type: Chromosome aberrations in vitro, Assay Code: CY&+D, Dose Response: With dose response, Evaluation Type: Evaluation A (Pre-1980)): active; positive
- mutagenic call (Species/Cell Type: Nonhuman, Assay Type: Sister-chromatid exchange (SCE) in vitro, Assay Code: SC2+, Evaluation Type: Evaluation A (Pre-1980)): active; positive

SMILES: CCCCCc1cc(O)c2c(c1)OC(C)(C)[C@@H]1CC=C(C)C[C@@H]21
- mutagenic call (Species/Cell Type: Fischer rat embryo (RLV/1706) cells, Assay Type: Cell transformation, viral enhanced, Assay Code: CTR-, Evaluation Type: Evaluation A (Pre-1980)): inactive; negative
- mutagenic call (Species/Cell Type: Human lymphocytes, Assay Type: Micronucleus test in vitro, chromosome aberrations, Assay Code: MN7+, Evaluation Type: Evaluation A (Pre-1980)): active; positive

SMILES: c1ccc2c(c1)cc1ccc3cccc4c5ccccc5c2c1c34
- call [5]: active; positive

SMILES: COc1cccc2oc3c4c(cc(OC)c3c(=O)c12)O[C@H]1OC=C[C@@H]41
- mutagenic call [12]: no conclusion
